Test results from ChEMBL document CHEMBL5528027, “Target identification, and optimization of dioxygenated amide derivatives as potent antibacterial agents with FabH inhibitory activity” (Eur J Med Chem, 2024).
In brackets after ≈: the same amount, converted by molar mass.

Experiments:
[1] = Cytotoxicity against mouse NIH3T3 cells incubated for 24 hrs by MTT analysis; assay type: toxicity, cell-based
Escherichia coli = experiment: Antibacterial activity against Escherichia coli assessed as reduction in bacterial growth measured after 24 hrs by two-fold serial dilution method; assay type: functional
Pseudomonas aeruginosa = experiment: Antibacterial activity against Pseudomonas aeruginosa assessed as reduction in bacterial growth measured after 24 hrs by two-fold serial dilution method; assay type: functional
Klebsiella pneumoniae = experiment: Antibacterial activity against Klebsiella pneumoniae assessed as reduction in bacterial growth measured after 24 hrs by two-fold serial dilution method; assay type: functional
[2] = target: T1, Beta-ketoacyl-[acyl-carrier-protein] synthase III (Escherichia coli K-12, UniProt P0A6R0); experiment: Inhibition of Escherichia coli FabH
T1 sequence (P0A6R0 whole entry): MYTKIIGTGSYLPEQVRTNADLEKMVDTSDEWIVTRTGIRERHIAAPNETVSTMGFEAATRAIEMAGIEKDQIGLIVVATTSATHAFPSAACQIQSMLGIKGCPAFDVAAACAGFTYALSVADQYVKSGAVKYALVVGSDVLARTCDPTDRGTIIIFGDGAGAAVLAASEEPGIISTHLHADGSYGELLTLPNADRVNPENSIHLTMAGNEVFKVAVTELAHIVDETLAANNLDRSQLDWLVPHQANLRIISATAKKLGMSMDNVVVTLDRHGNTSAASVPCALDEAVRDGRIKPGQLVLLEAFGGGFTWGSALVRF

Bacillus subtilis = experiment: Antibacterial activity against Bacillus subtilis assessed as reduction in bacterial growth measured after 24 hrs by two-fold serial dilution method; assay type: functional
Erythrocyte = experiment: Hemolytic activity in human erythrocytes assessed as hemolysis by spectrophotometric analysis; assay type: toxicity, cell-based
Staphylococcus aureus = experiment: Antibacterial activity against Staphylococcus aureus assessed as reduction in bacterial growth measured after 24 hrs by two-fold serial dilution method; assay type: functional
Streptococcus pneumoniae = experiment: Antibacterial activity against Streptococcus pneumoniae assessed as reduction in bacterial growth measured after 24 hrs by two-fold serial dilution method; assay type: functional

MIC (Escherichia coli) [µg/mL] | MIC (Pseudomonas aeruginosa) [µg/mL] | MIC (Klebsiella pneumoniae) [µg/mL] | IC50 [2] [µM] | MIC (Bacillus subtilis) [µg/mL] | MIC (Staphylococcus aureus) [µg/mL] | MIC (Streptococcus pneumoniae) [µg/mL] | SMILES | IC50 at 24 h [1] [µM] | HC30 (Erythrocyte) [µg/mL]
12.5 (≈ 39.3 µM) | 3.13 (≈ 9.83 µM) | 3.13 (≈ 9.83 µM) | 17.5 | 25 (≈ 78.5 µM) | 3.13 (≈ 9.83 µM) | 25 (≈ 78.5 µM) | CC(=O)N1CCC(NC(=O)c2ccc3c(c2)OCCCO3)CC1 | 132 | > 10
1.56 (≈ 4.4 µM) | 1.56 (≈ 4.4 µM) | 3.13 (≈ 8.82 µM) | 4.9 | 12.5 (≈ 35.2 µM) | 3.13 (≈ 8.82 µM) | 12.5 (≈ 35.2 µM) | O=C(Nc1cc(Cl)cc2cccnc12)c1ccc2c(c1)OCCCO2 | 115 | > 10
50 (≈ 163 µM) | 25 (≈ 81.6 µM) | > 100 |  | > 100 | 25 (≈ 81.6 µM) | 25 (≈ 81.6 µM) | O=C(c1ccc2c(c1)OCCCO2)N1CCN(CCO)CC1 |  | 
12.5 (≈ 46.2 µM) | 50 (≈ 185 µM) | 50 (≈ 185 µM) |  | 25 (≈ 92.5 µM) | 50 (≈ 185 µM) | > 100 | O=C(Nc1ccccn1)c1ccc2c(c1)OCCCO2 |  | 
> 100 | 50 (≈ 143 µM) | > 100 |  | > 100 | > 100 | 50 (≈ 143 µM) | COc1ccc(NC(=O)c2ccc3c(c2)OCCCO3)c2ncccc12 |  | 
25 (≈ 95.7 µM) | 25 (≈ 95.7 µM) | 25 (≈ 95.7 µM) |  | 12.5 (≈ 47.8 µM) | 25 (≈ 95.7 µM) | 25 (≈ 95.7 µM) | O=C(c1ccc2c(c1)OCCCO2)N1CCCCC1 |  | 
12.5 (≈ 31 µM) | 50 (≈ 124 µM) | 50 (≈ 124 µM) | 19.6 | 50 (≈ 124 µM) | 50 (≈ 124 µM) | > 100 | COC(=O)c1cccc(-c2ccc(NC(=O)c3ccc4c(c3)OCCCO4)cc2)c1 | 161 | > 10
50 (≈ 156 µM) | 50 (≈ 156 µM) | 50 (≈ 156 µM) |  | 50 (≈ 156 µM) | 25 (≈ 78 µM) | 50 (≈ 156 µM) | O=C(Nc1ccnc2ccccc12)c1ccc2c(c1)OCCCO2 |  | 
25 (≈ 95 µM) | 25 (≈ 95 µM) | 12.5 (≈ 47.5 µM) |  | 25 (≈ 95 µM) | 12.5 (≈ 47.5 µM) | 50 (≈ 190 µM) | O=C(c1ccc2c(c1)OCCCO2)N1CCOCC1 |  | 
> 100 | 50 (≈ 202 µM) | > 100 |  | > 100 | > 100 | > 100 | O=C(c1ccc2c(c1)OCCCO2)N1CCCC1 |  | 
25 (≈ 81.8 µM) | 25 (≈ 81.8 µM) | 25 (≈ 81.8 µM) |  | 25 (≈ 81.8 µM) | 25 (≈ 81.8 µM) | 50 (≈ 164 µM) | O=C(Nc1cncc(Cl)n1)c1ccc2c(c1)OCCCO2 |  | 
6.25 (≈ 19.9 µM) | 6.25 (≈ 19.9 µM) |  |  | 6.25 (≈ 19.9 µM) | 6.25 (≈ 19.9 µM) |  | C#CCCC1(CCNC(=O)c2ccc3c(c2)OCCCO3)N=N1 |  | 
50 (≈ 156 µM) | 50 (≈ 156 µM) | 25 (≈ 78 µM) |  | > 100 | 50 (≈ 156 µM) | > 100 | O=C(Nc1nccc2ccccc12)c1ccc2c(c1)OCCCO2 |  | 
6.25 (≈ 18.3 µM) | 12.5 (≈ 36.5 µM) | 25 (≈ 73 µM) | 26.8 | 25 (≈ 73 µM) | 25 (≈ 73 µM) | 25 (≈ 73 µM) | CCOC(=O)c1cccnc1NC(=O)c1ccc2c(c1)OCCCO2 | 147 | > 10
6.25 (≈ 22.6 µM) | 3.13 (≈ 11.3 µM) | 6.25 (≈ 22.6 µM) | 38.2 | 6.25 (≈ 22.6 µM) | 3.13 (≈ 11.3 µM) | 12.5 (≈ 45.2 µM) | CN1CCN(C(=O)c2ccc3c(c2)OCCCO3)CC1 | 175 | > 10
> 100 | 50 (≈ 125 µM) | 50 (≈ 125 µM) |  | 50 (≈ 125 µM) | > 100 | 50 (≈ 125 µM) | CCOC(=O)c1c(NC(=O)c2ccc3c(c2)OCCCO3)sc2c1CCCC2 |  | 
25 (≈ 92.5 µM) | 50 (≈ 185 µM) | 25 (≈ 92.5 µM) |  | > 100 | 50 (≈ 185 µM) | 50 (≈ 185 µM) | O=C(Nc1cccnc1)c1ccc2c(c1)OCCCO2 |  | 
3.13 (≈ 10.2 µM) | 6.25 (≈ 20.3 µM) | 3.13 (≈ 10.2 µM) | 13.1 | 12.5 (≈ 40.5 µM) | 6.25 (≈ 20.3 µM) | 12.5 (≈ 40.5 µM) | O=C(Nc1ccc2cc[nH]c2c1)c1ccc2c(c1)OCCCO2 | 198 | > 10
